# Results reported in US7138546B2, “Compounds and compositions for delivering active agents” (Emisphere Technologies, Inc., priority 2000, dated 2006).
row,melting point,Structure (SMILES)
1,203 to 205 °C,"O=C(COc1ccccc1O)Nc1cc(Cl)ccc1O [Compound 1, N-(5-Chloro-2-hydroxyphenyl)-2-(2-hydroxyphenoxy)acetamide]"
2,154 to 156 °C,"CCOCCC(=O)Nc1cc(Cl)ccc1O [Compound 2, N-(5-Choro-2-hydroxyphenyl)-3-ethoxypropanamide]"
